One data set has as its system HeLa cells. Put plainly: Proliferation assay, HeLa (crystal violet). The data set is classed as cell-based. As to conditions: Homo sapiens, 96 h, 4 days, read-out: Inhibition of HeLa cell proliferation IC50. As to the method:
(§1) Cultivated tumour cells (HeLa, human cervical tumour cells, ATCC CCL-2; NCI-H460, human non-small cell lung carcinoma cells, ATCC HTB-177; A2780, human ovarian carcinoma cells, ECACC #93112519; DU 145, hormone-independent human prostate carcinoma cells, ATCC HTB-81; HeLa-MaTu-ADR, multidrug-resistant human cervical carcinoma cells, EPO-GmbH Berlin; Caco-2, human colorectal carcinoma cells, ATCC HTB-37; B16F10, mouse melanoma cells, ATCC CRL-6475) were plated at a density of 5,000 cells/well (DU145, HeLa-MaTu-ADR), 3,000 cells/well (NCI-H460, HeLa), 2,500 cells/well (A2780), 1,500 cells/well (Caco-2), or 1,000 cells/well (B16F10) in a 96-well multititer plate in 200 μL of their respective growth medium supplemented 10% fetal calf serum. After 24 hours, the cells of one plate (zero-point plate) were stained with crystal violet (see below), while the medium of the other plates was replaced by fresh culture medium (200 μl), to which the test substances were added in various concentrations (0 μM, as well as in the range of 0.001-10 μM; the final concentration of the solvent dimethyl sulfoxide was 0.5%). The cells were incubated for 4 days in the presence of test substances. Cell proliferation was determined by staining the cells with crystal violet: the cells were fixed by adding 20 μl/measuring point of an 11% glutaric aldehyde solution for 15 minutes at room temperature. After three washing cycles of the fixed cells with water, the plates were dried at room temperature. The cells were stained by adding 100 μl/measuring point of a 0.1% crystal violet solution (pH 3.0). After three washing cycles of the stained cells with water, the plates were dried at room temperature. The dye was dissolved by adding 100 μl/measuring point of a 10% acetic acid solution. The extinction was determined by photometry at a wavelength of 595 nm. The change of cell number, in percent, was calculated by normalization of the measured values to the extinction values of the zero-point plate (=0%) and the extinction of the untreated (0 μm) cells (=100%).

Data set [1] concerns the target T1, CDK9/CycT1 (Homo sapiens, UniProt P50750).
The target of data set [2] is T2, CDK2/CycE (Homo sapiens, UniProt P24941). Put plainly: CDK2/CycE kinase assay (TR-FRET, Method 2a). (Time-resolved FRET reads energy transfer from a long-lived donor to a nearby acceptor.)
A further data set has as its system A2780 cells. Put plainly: Proliferation assay, A2780 (crystal violet). To be noted: Homo sapiens, 96 h; A2780, 4 days; read-out: Inhibition of A2780 cell proliferation IC50. It is filed as cell-based. The procedure: as §1
Data set [3] is described as follows: Caco-2 permeation assay (Method 5). It is filed as in vitro ADME. As to conditions: human; for Papp A→B at 2 h, 2 µM / Papp B→A at 2 h, 2 µM: pH 7.2, Caco-2, 2 μM test compound; for Papp A→B at 2 h, 2 µM: read-out: Papp A−B (Mari); for Papp B→A at 2 h, 2 µM: read-out: Papp B−A (Mari). For orientation: Caco-2 cells form a polarised layer with tight junctions and transporters.
Experimental: Cells were maintained at 37° C. in a humidified 5% CO2 atmosphere. Medium was changed every 2-3 day. Before running the permeation assay, the culture medium was replaced by a FCS-free hepes-carbonate transport buffer (pH 7.2). For assessment of monolayer integrity the transepithelial electrical resistance (TEER) was measured. Test compounds were predissolved in DMSO and added either to the apical or basolateral compartment in final concentration of 2 μM in transport buffer. Before and after 2 h incubation at 37° C. samples were taken from both compartments. Analysis of compound content was done after precipitation with methanol by LC/MS/MS analysis. Permeability (Papp) was calculated in the apical to basolateral (A→B) and basolateral to apical (B→A) directions. […] The efflux ratio basolateral (B) to apical (A) was calculated by dividing the Papp B−A by the Papp A−B. In addition the compound recovery was calculated.

The target of data set [4] is T1, CDK9/CycT1. Put plainly: CDK9/CycT1 kinase assay (TR-FRET, Method 1a).
Data set [5] is described as follows: Equilibrium shake flask solubility, high throughput from DMSO solution (Method 4a). It is filed as physicochemical. To be noted: phosphate buffer pH 6.5 with 1% DMSO, aqueous buffer, phosphate buffer pH 6.5, 24 hrs, room temperature. The text has this: (§2) 4. Equilibrium Shake Flask Solubility Assays:
4a) High Throughput Determination of Aqueous Drug Solubility (100 mmolar in DMSO)
The high throughput screening method to determine aqueous drug solubility is based on:
Thomas Onofrey and Greg Kazan, Performance and correlation of a 96-well high throughput screening method to determine aqueous drug solubility, http://www.millipore.com/publications.nsf/a73664f9f981af8c852569b9005b4eee/e565516fb76e7435852 56da30052db77/$FILE/AN1731EN00.pdf
The assay was run in a 96-well plate format. Each well was filled with an individual compound.
All pipetting steps were performed using a robot platform.
100 μl of a 10 mmolar solution of drug in DMSO were concentrated by vacuum centrifugation and resolved in 10 μl DMSO. 990 μl phosphate buffer pH 6.5 were added. The content of DMSO amounts to 1%. The multititer plate was put on a shaker and mixed for 24 hrs at room temperature. 150 μl of the suspension were transferred to a filtration plate. After filtration using a vacuum manifold the filtrate was diluted 1:400 and 1:8000. A second microtiter plate with 20 μl of a 10 mM solution of drug in DMSO served for calibration. Two concentrations (0.005 μM and 0.0025 μM) were prepared by dilution in DMSO/water 1:1 and used for calibration. Filtrate and calibration plates were quantified by HPLC-MS/MS.
Preparation of 0.1 m Phosphate Buffer pH 6.5:
61.86 g NaCl and 39.54 mg KH2PO4 were solved in water and filled up to […]. The mixture was diluted 1:10 with water and the pH adjusted to 6.5 by NaOH.
Materials: • Millipore MultiScreenHTS-HV Plate 0.45 μm
Chromatographic conditions were as follows: • HPLC column: Ascentis Express C18 2.7 μm 4.6×30 mm • Injection volume: 1 μl • Flow: 1.5 ml/min • Mobile phase: acidic gradient • A: Water/0.05% HCOOH • B: Acetonitrile/0.05% HCOOH • 0 min→95% A 5% B • 0.75 min→5% A 95% B • 2.75 min→5% A 95% B • 2.76 min→95% A 5% B • 3 min→95% A 5% B
The areas of sample- and calibration injections were determined by using mass spectromety software (AB SCIEX: Discovery Quant 2.1.3. and Analyst 1.6.1). The calculation of the solubility value (in mg/l) was executed by an inhouse developed Excel macro.

Another data set deals with MOLM-13 cells. Put plainly: Proliferation assay, MOLM-13 (Cell Titre-Glo). It is filed as cell-based. As to conditions: Homo sapiens; MOLM-13, 72-hour exposure; read-out: Inhibition of MOLM-13 cell proliferation IC50. The procedure: Non-adherent MOLM-13 human acute myeloid leukemia cells (DSMZ ACC 554) were seeded at a density of 5,000 cells/well in a 96-well multititer plate in 100 μL of growth medium supplemented 10% fetal calf serum. After 24 hours, cell viability of one plate (zero-point plate) was determined with the Cell Titre-Glo Luminescent Cell Viability Assay (Promega), while 50 μL of test compound containing medium was added to the wells of the other plates (final concentrations in the range of 0.001-10 μM and DMSO controls; the final concentration of the solvent dimethyl sulfoxide was 0.5%). Cell viability was assessed after 72-hour exposure with the Cell Titre-Glo Luminescent Cell Viability Assay (Promega).

Data set [6] deals with T2, CDK2/CycE. Put plainly: CDK2/CycE high ATP kinase assay (TR-FRET, Method 2b).
The test system of a further data set is HeLa-MaTu-ADR cells. Put plainly: Proliferation assay, HeLa-MaTu-ADR (crystal violet). It is filed as cell-based. To be noted: Homo sapiens, 96 h, 4 days, read-out: Inhibition of HeLa-MaTu-ADR cell proliferation IC50. The procedure:
as §1

In another data set the test system is Caco-2 cells. Put plainly: Proliferation assay, Caco-2 (crystal violet). The data set is classed as cell-based. As to conditions: Homo sapiens, 96 h; Caco-2, 4 days; read-out: Inhibition of Caco-2 cell proliferation IC50. As to the method:
as §1

For a further data set, the system named is B16F10 cells. Put plainly: Proliferation assay, B16F10 (crystal violet). The data set is classed as cell-based. To be noted: Mus musculus, B16-F10, 96 h; B16F10, 4 days; read-out: Inhibition of B16F10 cell proliferation IC50. The procedure:
as §1

Data set [7] is described as follows: Thermodynamic solubility in water from powder (Method 4b). The data set is classed as physicochemical. As to conditions: aqueous buffer, thermodynamic from solid, phosphate buffer pH 6.5, 24 hrs, room temperature. The procedure: as §2
4b) Thermodynamic Solubility in Water from Powder
The thermodynamic solubility of compounds in water was determined by an equilibrium shake flask method (see for example: E. H. Kerns, L. Di: Drug-like Properties: Concepts, Structure Design and Methods, 276-286, Burlington, Mass., Academic Press, 2008). A saturated solution of the drug was prepared and the solution was mixed for 24 h to ensure that equilibrium was reached. The solution was centrifuged to remove the insoluble fraction and the concentration of the compound in solution was determined using a standard calibration curve. To prepare the sample, 2 mg solid compound was weighed in a 4 mL glass vial. 1 mL phosphate buffer pH 6.5 was added. The suspension was stirred for 24 hrs at room temperature. The solution was centrifuged afterwards. To prepare the sample for the standard calibration, 2 mg solid sample was dissolved in 30 mL acetonitrile. After sonification the solution was diluted with water to 50 mL. Sample and standards were quantified by HPLC with UV-detection. For each sample two injection volumes (5 and 50 μl) in triplicates were made. Three injection volumes (5 μl, 10 μl and 20 μl) were made for the standard. […]
The areas of sample- and standard injections as well as the calculation of the solubility value (in mg/l) were determined by using HPLC software (Waters Empower 2 FR).

A further data set deals with NCI-H460 cells. Put plainly: Proliferation assay, NCI-H460 (crystal violet). It is filed as cell-based. To be noted: Homo sapiens, 96 h; NCI-H460, 4 days; read-out: Inhibition of NCI-H460 cell proliferation IC50. The procedure:
as §1

Another data set has as its system DU145 cells. Put plainly: Proliferation assay, DU145 (crystal violet). As to conditions: Homo sapiens, DU-145, 96 h; DU145, 4 days; read-out: Inhibition of DU145 cell proliferation IC50. It is filed as cell-based. As to the method: as §1

In brackets after ≈: the same amount, converted by molar mass. Where two headings read alike, the source gives them in different places.

T1 sequence (P50750 whole entry): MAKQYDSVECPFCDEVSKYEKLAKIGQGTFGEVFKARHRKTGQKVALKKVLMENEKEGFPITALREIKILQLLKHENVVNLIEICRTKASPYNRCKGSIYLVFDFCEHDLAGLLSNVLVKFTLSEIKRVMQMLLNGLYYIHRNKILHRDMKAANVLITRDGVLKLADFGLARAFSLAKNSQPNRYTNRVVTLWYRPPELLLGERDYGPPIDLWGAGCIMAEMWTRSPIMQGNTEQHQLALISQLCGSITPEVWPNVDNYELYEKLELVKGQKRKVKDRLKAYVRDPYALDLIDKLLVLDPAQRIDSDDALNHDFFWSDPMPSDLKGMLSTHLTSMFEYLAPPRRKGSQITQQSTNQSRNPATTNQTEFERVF
T1 sequence (O60563 whole entry partner): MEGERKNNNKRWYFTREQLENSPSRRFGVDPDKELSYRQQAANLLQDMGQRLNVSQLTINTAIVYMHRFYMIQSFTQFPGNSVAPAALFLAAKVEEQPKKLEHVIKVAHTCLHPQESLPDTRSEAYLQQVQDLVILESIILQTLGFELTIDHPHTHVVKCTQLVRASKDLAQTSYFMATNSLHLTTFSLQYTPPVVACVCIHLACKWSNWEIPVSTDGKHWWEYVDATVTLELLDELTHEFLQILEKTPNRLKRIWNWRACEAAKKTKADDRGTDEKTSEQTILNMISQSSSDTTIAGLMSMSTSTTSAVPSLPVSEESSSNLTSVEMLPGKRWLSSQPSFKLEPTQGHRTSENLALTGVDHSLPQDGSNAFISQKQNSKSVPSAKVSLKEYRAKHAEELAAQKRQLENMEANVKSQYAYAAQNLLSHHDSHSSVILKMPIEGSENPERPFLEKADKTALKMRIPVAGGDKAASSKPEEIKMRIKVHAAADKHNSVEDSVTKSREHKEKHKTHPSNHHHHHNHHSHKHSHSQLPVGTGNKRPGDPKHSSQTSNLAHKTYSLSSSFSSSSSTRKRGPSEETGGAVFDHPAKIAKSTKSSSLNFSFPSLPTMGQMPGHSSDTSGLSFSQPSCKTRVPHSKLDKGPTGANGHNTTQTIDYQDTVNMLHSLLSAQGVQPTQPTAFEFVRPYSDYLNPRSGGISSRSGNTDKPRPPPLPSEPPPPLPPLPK

Take `CS(=N)(=N)Cc1cc(Nc2ncc(F)c(-c3ccc(F)cc3F)n2)cc(S(F)(F)(F)(F)F)c1` [Example 7, 4-(2,4-Difluorophenyl)-5-fluoro-N-{3-[(S-methylsulfonodiimidoyl)methyl]-5-(pentafluoro-λ^6-sulfanyl)phenyl}pyrimidin-2-amine]: the IC50 with HeLa cells turned out to be 346 nM; at CDK9/CycT1 [1] it was 26 nM; against CDK2/CycE [2], 2300 nM; in the data set on A2780 cells, 337 nM; against CDK9/CycT1 [4], 17 nM; in the data set on MOLM-13 cells it was 244 nM. Further, the IC50 on CDK2/CycE [6] is at least 20000 nM. Further, the “Selectivity high ATP CDK9 over high ATP CDK2: IC50 (high ATP CDK2)/IC50 (high ATP CDK9)” value at CDK9/CycT1 [1] (Methods 1b and 2b) stood at 769. In addition, the efflux ratio at 2 h, 2 µM in data set [3] (Caco-2, pH 7.2) was 1.1. In data set [3], the Papp A→B at 2 h, 2 µM was 3.21 ×10⁻⁶ cm/s. Moreover, in data set [3], the Papp B→A at 2 h, 2 µM was determined as 3.57 ×10⁻⁶ cm/s. Besides, on CDK9/CycT1 [4] (Methods 1a and 2a), the “Selectivity CDK9 over CDK2: IC50 (CDK2)/IC50 (CDK9)” value turned out to be 135. The solubility (thermodynamic) at 24 h in [5] was determined as 1.2 µg/mL (≈ 2.32 µM).
For the compound `COc1cc(F)ccc1-c1nc(Nc2cc(F)cc(CS(C)(=N)=N)c2)ncc1F` [Example 1, 5-Fluoro-4-(4-fluoro-2-methoxyphenyl)-N-{3-fluoro-5-[(S-methylsulfonodiimidoyl)methyl]phenyl}pyrimidin-2-amine], the IC50 with HeLa cells turned out to be 252 nM; with HeLa-MaTu-ADR cells it was 327 nM; with Caco-2 cells, 386 nM; in the data set on B16F10 cells, 532 nM; with A2780 cells it was 201 nM; with NCI-H460 cells, 351 nM. In addition, in the data set with DU145 cells, the IC50 is 341 nM. Further, in data set [3], the Papp A→B at 2 h, 2 µM was found to be 5 ×10⁻⁶ cm/s. In data set [3], the Papp B→A at 2 h, 2 µM stood at 28 ×10⁻⁶ cm/s. In addition, the thermodynamic solubility at 24 h in data set [7] is 91 µg/mL (≈ 216 µM); in data set [5], 155 µg/mL (≈ 368 µM).

Usually efflux ratio stands for a quotient of directional permeabilities that is used to spot active efflux. For orientation: Papp A→B means how fast a substance crosses the layer from the apical side. Broadly, the Papp B→A is the apparent permeability from the basolateral to the apical side of a cell layer. A word on the solubility (thermodynamic): it is solubility found after equilibrating the solid with the medium.

Values taken from patent US9790189B2, “Disubstituted 5-fluoro pyrimidine derivatives containing a sulfondiimine group” (Bayer Pharma Aktiengesellschaft, priority 2014, dated 2017).
